Results as given in patent publication EP4782453A1 (Beyang Therapeutics Co., Ltd., priority 2023, dated 2025).
Read-outs that look alike come from different tables or passages of the source.

Biological target: T1, Menin-MLL (Homo sapiens, UniProt O00255)
T1 construct: His-Menin (M1-L615 end); purchased BIORTUS BP9210
T1 sequence (O00255 1-615 isoform O00255-1): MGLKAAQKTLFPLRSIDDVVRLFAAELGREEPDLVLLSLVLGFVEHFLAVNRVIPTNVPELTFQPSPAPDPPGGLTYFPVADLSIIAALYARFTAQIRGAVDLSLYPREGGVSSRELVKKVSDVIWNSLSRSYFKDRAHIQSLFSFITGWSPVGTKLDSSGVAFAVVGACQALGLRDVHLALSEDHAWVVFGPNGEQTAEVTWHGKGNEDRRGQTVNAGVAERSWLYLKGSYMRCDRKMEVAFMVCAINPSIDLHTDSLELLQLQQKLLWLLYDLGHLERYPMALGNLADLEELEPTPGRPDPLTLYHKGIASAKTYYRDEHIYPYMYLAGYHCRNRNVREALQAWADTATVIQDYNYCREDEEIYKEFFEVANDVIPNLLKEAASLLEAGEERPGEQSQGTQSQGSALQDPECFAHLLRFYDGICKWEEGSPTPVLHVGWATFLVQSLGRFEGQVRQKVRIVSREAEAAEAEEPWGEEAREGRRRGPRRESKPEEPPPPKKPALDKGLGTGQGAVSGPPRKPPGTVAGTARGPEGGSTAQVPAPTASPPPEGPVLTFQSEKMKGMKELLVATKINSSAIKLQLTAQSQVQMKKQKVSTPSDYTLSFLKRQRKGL
Assay: Inhibitory activity against Menin-MLL binding (fluorescence polarization)
Conditions: 150 nM His-Menin, 15 nM FITC-MLL, 25°C for 60 min
Method in brief: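 His-Menin (M1-L615, 150 nM) preincubated with compound 15 min at 25 °C in HEPES pH 7.5, 50 mM NaCl, 1 mM DTT, 0.01% BSA, then 15 nM FITC-MLL4-43 peptide added for 60 min at 25 °C. Fluorescence polarization read; IC50 from 4-parameter logistic fit, duplicates.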

[1] = fluorescence polarization, read-out: Menin-MLL IC50
[2] = Menin-MLL IC50, fluorescence polarization

SMILES	IC50 [1]	IC50 [2]
Cc1nc(F)c2c(-c3ccc(F)cc3C(=O)N3CCOC[C@H]3C)cc(C3CN(C(CC[C@H]4CN(C)CCO4)C(C)C)C3)cn12 (stereo partly drawn) [Example 308, (3R)-4-{5-fluoro-2-[1-fluoro-3-methyl-6-(1-{4-methyl-1-[(2S)-4-methylmorpholin-2-yl]pentan-3-yl}azacyclobutan-3-yl)imidazo[1,5-a]pyridin-8yl]benzoyl}-3-methylmorpholine]	49 nM	
Cc1nc(F)c2c(-c3ccc(F)cc3C(=O)N3CCOC[C@H]3C)cc(C3CN(C(CO)C4CCOCC4)C3)cn12 (stereo partly drawn) [Example 309, 2-[3-(1-fluoro-8-{4-fluoro-2-[(3R)-3-methylmorpholin-4-carbonyl]phenyl}-3-methylimidazo[1,5-a]pyridin-6-yl)azacyclobutan-1-yl]-2-(oxacyclohexan-4-yl)ethan-1-ol]	60 nM	
CCN(C(=O)c1cc(F)ccc1-c1cc(C2CN([C@@H](CCCN3CCN(C)CC3)C(C)C)C2)cn2c(C)ncc12)C(C)C [Example 310-1, N-ethyl-5-fluoro-2-(3-methyl-6-{1-[(3S)-2-methyl-6-(4-methylpiperazin-1-yl)hexan-3-yl]azacyclobutan-3-yl}imidazo[1,5-a]pyridin-8-yl)-N-(isopropyl)benzamide]	31 nM	
CCN(C(=O)c1cc(F)ccc1-c1cc(C2CN([C@@H](CCCN3CCN(C(C)=O)CC3)C(C)C)C2)cn2c(C)ncc12)C(C)C [Example 311-1, 2-(6-{1-[(3S)-6-(4-acetylpiperazin-1-yl)-2-methylhexan-3-yl]azacyclobutan-3-yl}-3-methylimidazo[1,5-a]pyridin-8-yl)-N-ethyl-5-fluoro-N-(isopropyl)benzamide]	42 nM	
CCN(C(=O)c1cc(F)ccc1-c1cc(C2CN([C@@H](CCCN3CCN(C)CC3)C(C)C)C2)cn2c(C)nc(F)c12)C(C)C [Example 312-1]	32 nM	
CCN(C(=O)c1cc(F)ccc1-c1cc(C2CN([C@@H](CCCN3CCN(C(C)=O)CC3)C(C)C)C2)cn2c(C)nc(F)c12)C(C)C [Example 313]	48 nM	
CCN(C(=O)c1cc(F)ccc1-c1cc(C2CN(C(=O)[C@@H](NC)C(C)C)C2)cn2c(C)nc(F)c12)C(C)C [Example 315]		39 nM
CC[C@H](C)[C@H](NC)C(=O)N1CC(c2cc(-c3ccc(F)cc3C(=O)N(CC)C(C)C)c3c(F)nc(C)n3c2)C1 [Example 316]		99 nM
CCN(C(=O)c1cc(F)ccc1-c1cc(C2CN(C(=O)[C@@H](NC)C3CCCC3)C2)cn2c(C)nc(F)c12)C(C)C [Example 317]		92 nM
CC[C@@H](C)[C@H](NC)C(=O)N1CC(c2cc(-c3ccc(F)cc3C(=O)N(CC)C(C)C)c3c(F)nc(C)n3c2)C1 [Example 318]		39 nM
CCC(=O)N1CCC(C(C)N2CC(c3cc(-c4ccc(F)cc4C(=O)N4CCOC[C@H]4C)c4cnc(C)n4c3)C2)CC1 (stereo partly drawn) [Example 319, 1-(4-{1-[3-(8-{4-fluoro-2-[(3R)-3-methylmorpholin-4-carbonyl]phenyl}-3-methylimidazo[1,5-a]pyridin-6-yl)azacyclobutan-1-yl]ethyl}piperidin-1-yl)propan-1-one]	19 nM	
CCC(=O)N1CCC([C@H](C)N2CC(c3cc(-c4ccc(F)cc4C(=O)N4CCOC[C@H]4C)c4cnc(C)n4c3)C2)CC1 [Example 319-1, 1-{4-[(1S)-1-[3-(8-{4-fluoro-2-[(3R)-3-methylmorpholin-4-carbonyl]phenyl}-3-methylimidazo[1,5-a]pyridin-6-yl)azacyclobutan-1-yl]ethyl]piperidin-1-yl}propan-1-one]	39 nM	
CCC(=O)N1CCC([C@@H](C)N2CC(c3cc(-c4ccc(F)cc4C(=O)N4CCOC[C@H]4C)c4cnc(C)n4c3)C2)CC1 [Example 319-2, 1-{4-[(1R)-1-[3-(8-{4-fluoro-2-[(3R)-3-methylmorpholin-4-carbonyl]phenyl}-3-methylimidazo[1,5-a]pyridin-6-yl)azacyclobutan-1-yl]ethyl]piperidin-1-yl}propan-1-one]	328 nM	
CCCC(=O)N1CCC(C(C)N2CC(c3cc(-c4ccc(F)cc4C(=O)N4CCOC[C@H]4C)c4cnc(C)n4c3)C2)CC1 (some centres unmarked) [Example 320]	12 nM	
Cc1nc(F)c2c(-c3ccc(F)cc3C(=O)N3CCOC[C@H]3C)cc(C3CN([C@H](CO[C@H]4CCN(C)C4)C(C)C)C3)cn12 [Example 322, (3R)-4-[5-fluoro-2-(1-fluoro-3-methyl-6-{1-[(2S)-3-methyl-1-{[(3S)-1-methylpyrrolidin-3-yl]oxy}butan-2-yl]azacyclobutan-3-yl}imidazo[1,5-a]pyridin-8yl)benzoyl]-3-methylmorpholine]	2 nM	
Cc1ncc2c(-c3ccc(F)cc3C(=O)N3CCOC[C@H]3C)cc(C3CN([C@@H](CCCN4CCN(C)CC4)C(C)C)C3)cn12 [Example 323-1, (3R)-4-[5-fluoro-2-(3-methyl-6-{1-[(3S)-2-methyl-6-(4-methylpiperazin-1-yl)hexan-3-yl]azacyclobutan-3-yl}imidazo[1,5-a]pyridin-8-yl)benzoyl]-3-methylmorpholine]	179 nM	
CCN1CCN(CCC[C@@H](C(C)C)N2CC(c3cc(-c4ccc(F)cc4C(=O)N4CCOC[C@H]4C)c4cnc(C)n4c3)C2)CC1 [Example 324-1]	126 nM	
CCN(C(=O)c1cc(F)ccc1-c1cc(C2CN([C@H](CCCN3CCC[C@H](O)C3)C(C)C)C2)cn2c(C)ncc12)C(C)C [Example 327]	1.8 nM	
CC(=O)N1CCN(CCC[C@H](C(C)C)N2CC(c3cc(-c4ccc(F)cc4C(=O)N4CCOC[C@H]4C)c4c(F)nc(C)n4c3)C2)[C@H](C)C1 [Example 328]	16 nM	
CC(=O)N1CCN(CCC[C@H](C(C)C)N2CC(c3cc(-c4ccc(F)cc4C(=O)N4CCOC[C@H]4C)c4c(F)nc(C)n4c3)C2)C[C@H]1C [Example 330, 1-{(2R)-4-[(4R)-4-[3-(1-fluoro-8-{4-fluoro-2-[(3R)-3-methylmorpholin-4-carbonyl]phenyl}-3-methylimidazo[1,5-a]pyridin-6-yl)azacyclobutan-1-yl]-5-methylhexyl]-2-methylpiperazin-1-yl}ethan-1-one]	16 nM	
CC(=O)N1C[C@H]2C[C@@H]1CN2CCC[C@H](C(C)C)N1CC(c2cc(-c3ccc(F)cc3C(=O)N3CCOC[C@H]3C)c3c(F)nc(C)n3c2)C1 [Example 332, 1-[(1R,4R)-5-[(4R)-4-[3-(1-fluoro-8-{4-fluoro-2-[(3R)-3-methylmorpholin-4-carbonyl]phenyl}-3-methylimidazo[1,5-a]pyridin-6-yl)azacyclobutan-1-yl]-5-methylhexyl]-2,5-diazabicyclo[2.2.1]heptan-2-yl]ethan-1-one]	9.3 nM	
CC(=O)N1CCN(CCC[C@H](C(C)C)N2CC(c3cc(-c4ccc(F)cc4C(=O)N4CCOC[C@H]4C)c4c(F)nc(C)n4c3)C2)C2(CC2)C1 [Example 334]	30 nM	
CCC(=O)N1CCN(CCC[C@H](C(C)C)N2CC(c3cc(-c4ccc(F)cc4C(=O)N4CCOC[C@H]4C)c4c(F)nc(C)n4c3)C2)CC1 [Example 335]	8 nM	
CC(=O)N1CCN(CCC[C@H](C(C)C)N2CC(c3cc(-c4ccc(F)cc4C(=O)N4CCOC[C@H]4C)c4c(F)nc(C)n4c3)C2)CC1(C)C [Example 339]	13 nM	
CC(=O)N1CCN(CCC[C@H](C(C)C)N2CC(c3cc(-c4ccc(F)cc4C(=O)N4CCOC[C@H]4C)c4c(F)nc(C)n4c3)C2)CC12CC2 [Example 340]	33 nM	
CC(=O)N1C2CC1CN(CCC[C@H](C(C)C)N1CC(c3cc(-c4ccc(F)cc4C(=O)N4CCOC[C@H]4C)c4c(F)nc(C)n4c3)C1)C2 [Example 345]	18 nM	
CC(=O)N1CC2CCC(C1)N2CCC[C@H](C(C)C)N1CC(c2cc(-c3ccc(F)cc3C(=O)N3CCOC[C@H]3C)c3cnc(C)n3c2)C1 [Example 348, 1-{8-[(4R)-4-[3-(8-{4-fluoro-2-[(3R)-3-methylmorpholin-4-carbonyl]phenyl}-3-methylimidazo[1,5-a]pyridin-6-yl)azacyclobutan-1-yl]-5-methylhexyl]-3,8-diazabicyclo[3.2.1]oct-3-yl}ethan-1-one]	7.3 nM	
CC(=O)N1CCC([C@H](C(C)C)N2CC(c3cc(-c4ccc(F)cc4C(=O)N4CCOC[C@H]4C)c4c(F)nc(C)n4c3)C2)CC1 [Example 357-1, 1-{4-[(1S)-1-[3-(1-fluoro-8-{4-fluoro-2-[(3R)-3-methylmorpholin-4-carbonyl]phenyl}-3-methylimidazo[1,5-a]pyridin-6-yl)azacyclobutan-1-yl]-2-methylpropyl]piperidin-1-yl}ethan-1-one]	15.5 nM	
CC(=O)N1CCC([C@@H](C(C)C)N2CC(c3cc(-c4ccc(F)cc4C(=O)N4CCOC[C@H]4C)c4c(F)nc(C)n4c3)C2)CC1 [Example 357-2, 1-{4-[(1R)-1-[3-(1-fluoro-8-{4-fluoro-2-[(3R)-3-methylmorpholin-4-carbonyl]phenyl}-3-methylimidazo[1,5-a]pyridin-6-yl)azacyclobutan-1-yl]-2-methylpropyl]piperidin-1-yl}ethan-1-one]	22 nM	
